In US9795687B2, “Modularly assembled small molecules for the treatment of myotonic dystrophy type 1” (The Scripps Research Institute, priority 2013, dated 2017):

Assays:
r(GC)8 = assay: SPR binding kinetics to r(GC)8
Experimental: The binding of 2H-K4NMe to various RNAs including r(CUG)12, r(CAG)12, r(AU)12 and r(GC)δ was studied by surface plasmon resonance (SPR) spectrometry. […] In summary, 2H-K4NMe is selective for r(CUG)12 by ˜30-100-fold over the other RNAs studied (Table 2). In general, it has a faster association rate (kon) and a slower dissociation rate (koff) when binding to r(CUG)12 compared to the other RNAs.
On rates, off rates and Kobs values were measured using a ForteBio OctetRed spectrophotometer and Streptavidin SA dip-and-read biosensors (ForteBio). Sensors were pre-equilibrated in 1X Kinetics Buffer (ForteBio) prior to beginning measurements. 5′-Biotinylated r(CUG)12 was folded by heating in 1X Kinetics Buffer at 60° C. for 5 min followed by slow cooling to room temperature on the bench top. Measurements were completed by incubating sensors sequentially in 200 μL of: 1X Kinetics Buffer, 540 nM 5′-biotinylated RNA, 1X Kinetics Buffer, compound of interest or MBNL1 (varying concentrations; seven 1:2 dilutions in 1X Kinetics Buffer), and finally 1X Kinetics Buffer. Data were fit using ForteBio's Data Analysis 7.0 software. MBNL1 and II (monomer) data were fit using a 1:1 model. This model fits one analyte in solution binding to one binding site on the surface. 2H-K4NMe and 2H-4 data were fit using a 2:1 heterogeneous ligand model. This model fits the binding of one analyte in solution to two different binding sites on the surface. Kinetic parameters are calculated for both interactions.

r(CUG)12-MBNL1 complex = assay: TR-FRET assay, disruption of the r(CUG)12-MBNL1 complex; assay type: biochemical; conditions: among third generation compounds (2H-K4NPr derivatives)
Experimental: As mentioned above, DM1 is caused by sequestration of MBNL1 by r(CUG)^exp.^28, 32-37 Therefore, in vitro potency was determined by measuring displacement of MBNL1 from a r(CUG)12-MBNL1 complex using a time-resolved FRET (TR-FRET) assay.^15, 47 Each dimeric compound disrupts the r(CUG)12-MBNL1 complex with IC50's between ˜3 and ˜300 μM (FIG. 3). […] This may be due to the presence of imino protons that can favorably interact with the phosphodiester backbone of RNA (FIG. 2).
Initial in vitro activity of modularly assembled compounds was assessed by disruption of the r(CUG)^exp-MBNL1 complex using a previously reported TR-FRET assay.^15, 47 The ratio of fluorescence intensity of 545 and 665 nm in the presence and absence of compound were used to calculate percent inhibition.
The resulting curves were fit to the following equation to determine IC50 values:
[formula] where y is the ratio of fluorescence intensities at 545 nm and 665 nm (F545/F665), x is the concentration of small molecule, B is the F545/F665 ratio reflective of the maximum amount of FRET observed (absence of small molecule); A is the F545/F665 ratio reflective of the minimum amount of FRET observed (absence of RNA, protein, and small molecule; only antibodies are present); and the IC50 is the concentration of small molecule where half of the protein is displaced by small molecule. Improvement of DM1-Associated Splicing Defects in a DM1 Cell Culture Model Using RT-PCR.

pronase = assay: Proteolytic stability against pronase digestion (HPLC); assay type: in vitro ADME, Streptomyces griseus K-1; design: key to Pronase Degradation (pH 7.8) / Pronase Degradation (pH 9): +: Pronase stable; ++: Intermediate Pronase stability; +++: Pronase unstable; conditions: 18 h, 400 μM compound
Experimental: Proteolytic stability of second and third generation compounds was assessed using pronase as previously described.^3 Pronase is a group of≧10 proteases isolated from Streptomyces griseus K-1. As such, proteolytic degradation was measured at two pH's, 7.8 and 9.0. Briefly, promise (1 unit) was added to the compound of interest (400 μM in 40 μL) in 1X Digestion Buffer (50 mM Tris-HCl, pH 7.8 or 9.0, and 10 mM CaCl2), and the reaction was incubated at 37° C. for 18 h. Reactions were quenched by addition of 4 μL of 25% acetic acid, and the products of the pronase digestion were analyzed by HPLC. A linear gradient of 0-100% methanol in H2O with 0.1% (v/v) TFA and a flow rate of 1 mL/min were employed.

[1] = r(GC)8, two component binding isotherm

Structure (SMILES): C[C@@H](C(=O)N(C)[C@@H](C)C(=O)N(C)[C@@H](C)C(=O)N(C)[C@@H](C)C(=O)N[C@@H](CCCCNC(=O)CCCOc1cccc(-c2nc3cc(-c4nc5cc(N6CCN(C)CC6)ccc5[nH]4)ccc3[nH]2)c1)C(N)=O)N(C)C(=O)CCCOc1cccc(-c2nc3ccc(-c4nc5cc(N6CCN(C)CC6)ccc5[nH]4)cc3[nH]2)c1 [Compound 2H-K4NMe]
- Selectivity for r(CUG)12 (r(GC)8; over r(GC)8): 107
- kon (1) (r(GC)8; r(GC)8): 58600 M⁻¹ s⁻¹
- kon (2) (r(GC)8; r(GC)8): 24800 M⁻¹ s⁻¹
- Kd (r(GC)8; r(GC)8, read-out: Kobs (1)): 1400 nM
- koff (1) (r(GC)8; [1]): 0.0822 s⁻¹
- koff (2) (r(GC)8; [1]): 0.105 s⁻¹
- in vitro potency rank in TR-FRET assay (r(CUG)12-MBNL1 complex): most potent
- Pronase Degradation (pH 7.8) (pronase; pH 7.8, 37° C.): ++
- Pronase Degradation (pH 9) (pronase; pH 9.0, 37° C.): ++
